Results on five compounds are retold here after the supplement of paper PMC4862054.

What all share (conditions): incubation time: 72 h
In test [1] the test system is BT-549. Briefly: normalised response (% of control), CellTiter-Glo; higher = more viable cells (100 = DMSO, 0 = benzethonium chloride kill control). An outline of the steps:
(§1)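 Breast cancer cell lines in 20 µl suspension were added to 384-well plates containing compound at 5 concentrations, spaced in 10-fold steps across a 10,000-fold range chosen for each compound, and incubated for 72 h. CellTox Green fluorescence was read at 485/520 nm, followed by CellTiter-Glo luminescence after 10 min at room temperature. Signals on each plate were normalised so that 0.1 % DMSO equals 100 and a positive kill control equals 0. Every value in the table is the normalised signal at one concentration of the series.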

Test [2] has as its system CAL-120. The description is as above. A digest of the protocol:
as §1

Test [3] concerns CAL-148. The description is as above. An outline of the steps:
as §1

The test system of test [4] is CAL-51. The description is as above. An outline of the steps: as §1
Test [5] deals with HCC1143. The description is as above. An outline of the steps:
as §1

Test [6] relates to HCC1937. The test is described as above. An outline of the steps: as §1
The subject of test [7] is HDQ-P1. The test is described as above. An outline of the steps: as §1
For test [8], the system named is Hs578T. Described as above. An outline of the steps:
as §1

In test [9] the test system is MCF-10A. The description is as above. A digest of the protocol:
as §1

For test [10], the system named is MDA-MB-231. Described as above. An outline of the steps:
as §1

The subject of test [11] is MDA-MB-453. The test is described as above. An outline of the steps: as §1
In test [12] the test system is MDA-MB-468. The test is described as above. An outline of the steps: as §1
For test [13], the system named is MFM-223. The test is described as above. An outline of the steps:
as §1

The test system of test [14] is SK-BR-3. The test is described as above. A digest of the protocol: as §1
Test [15] concerns CAL-120. Briefly: drug sensitivity score (DSS), CellTiter-Glo (DSS (AUC-based score)); higher = stronger drug effect (viability inhibition or cytotoxicity); extreme values may be limits of the assay. A digest of the protocol: (§2)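 Using 20 µl of cell suspension per well, breast cancer cell lines were seeded into 384-well plates pre-loaded with compound at 5 concentrations in 10-fold steps across a compound-specific 10,000-fold range. Incubation lasted 72 h, after which CellTox Green fluorescence at 485/520 nm and then CellTiter-Glo luminescence, following 10 min at room temperature, were recorded. Each plate was normalised to 0.1 % DMSO and a positive kill control before the drug sensitivity score was derived from the area under the fitted dose-response curve.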

Test [16] has as its system CAL-51. The description is as above. A digest of the protocol:
as §2

The test system of test [17] is CAL-85-1. The test is described as above. A digest of the protocol:
as §2

In test [18] the test system is DU-4475. The description is as above. A digest of the protocol:
as §2

The test system of test [19] is HCC1143. The description is as above. A digest of the protocol: as §2
The test system of test [20] is HCC1937. Described as above. A digest of the protocol: as §2
The subject of test [21] is HDQ-P1. The description is as above. A digest of the protocol: as §2
The subject of test [22] is Hs578T. The test is described as above. A digest of the protocol: as §2
The test system of test [23] is MDA-MB-231. The description is as above. A digest of the protocol:
as §2

In test [24] the test system is MDA-MB-436. Described as above. An outline of the steps:
as §2

In test [25] the test system is MDA-MB-453. The description is as above. A digest of the protocol: as §2
The test system of test [26] is MDA-MB-468. The test is described as above. A digest of the protocol: as §2
Test [27] concerns MFM-223. The description is as above. A digest of the protocol: as §2

Regarding `NC1(c2ccc(-c3nc4ccn5c(=O)[nH]nc5c4cc3-c3ccccc3)cc2)CCC1` [MK-2206] (1000 nM), the normalised response in test [1] was found to be 69.3%; in test [2], 92.5%; in [3] it was 59.7%; in test [4], 84.2%; in [5] it was 84%; in test [6], 86%. Further, the normalised response in test [7] is 81.4%; in test [8], 87.2%; in [9], 83.3%; in test [10] it was 86.1%; in [11], 36.6%; in test [12], 83%. Further, the results for the normalised response in test [13] and in test [14] were 46.9% and 52.1%, respectively.
As for `O=C(c1cc(Cc2n[nH]c(=O)c3ccccc23)ccc1F)N1CCN(C(=O)C2CC2)CC1` [Olaparib] (10000 nM), the normalised response in test [1] turned out to be 78.1%; in test [2] it was 82.3%; in [3], 64.6%; in [4], 66.1%; in test [5], 87.3%; in test [6], 91.6%. Moreover, the normalised response stood at 87.8% in test [7]; 84.6% in test [8]; 92.8% in test [9]; 77.2% in [10]; 144% in [11]; 69.5% in [12]. The values for the normalised response in [13] and in [14] were 88.5% and 78.7%, respectively.
For the compound `COc1cc2c(N3CCN(C(=O)Nc4ccc(OC(C)C)cc4)CC3)ncnc2cc1OCCCN1CCCCC1` [Tandutinib] (1000 nM), the normalised response in [1] turned out to be 102%; in test [2], 106%; in test [3], 97.8%; in test [4] it was 117%; in test [5], 95.7%; in test [6], 100%. Further, the normalised response in test [7] is 99.1%; in test [8], 92.3%; in test [9], 87%; in test [10], 106%; in test [11], 99.1%; in test [12] it was 99.7%. The normalised response in [13] is 98.8%; in test [14], 99%.
On to `C[C@@H](C(=O)O)c1ccc(-c2ccccc2)c(F)c1` [Tarenflurbil] (10000 nM), for which the normalised response in test [1] was 99%; in [2], 104%; in [3], 88.3%; in test [4], 120%; in test [5] it was 98.7%; in [6] it was 96.9%. Moreover, the normalised response was 98.5% in [7]; 97.5% in [8]; 99.4% in [9]; 98.7% in test [10]; 93.7% in test [11]; 91.5% in test [12]. The normalised response in test [13] was 92.8%; in test [14], 93.3%.
As to `CCc1c(C(=O)C(N)=O)c2c(OCC(=O)O)cccc2n1Cc1ccccc1` [Varespladib], the drug sensitivity score in [15], in [16], in test [17], in [18], in test [19] and in [20] was 0 each time. Besides, the drug sensitivity score in test [21], in test [22], in test [23], in test [24], in test [25] and in test [26] was 0 in each case. Besides, the drug sensitivity score in test [27] worked out at 0.
